Assay results published in patent publication US9481648B2, “Kinase inhibitors” (Respivert Limited, priority 2013, dated 2016).
Read-outs that look alike come from different tables or passages of the source.

Legend:
B-Raf = B-Raf (Homo sapiens (Human), UniProt P15056); experiment: KINOMEscan binding of kinase to its standard ligand
Procedure: (§1) Kinase enzyme binding activities of compounds disclosed herein may be determined using a proprietary assay which measures active site-directed competition binding to an immobilized ligand (Fabian, M. A. et al., Nature Biotechnol., 2005, 23:329-336). These assays may be conducted by DiscoverX (formerly Ambit; San Diego, Calif.). The percentage inhibition produced by incubation with a test compound may be calculated relative to the non-inhibited control.

B-Raf (V600E) = B-Raf (V600E) (Homo sapiens (Human), UniProt P15056, V600E); experiment: as above
Procedure: as §1

c-Src = c-Src (Homo sapiens (Human), UniProt P12931); experiment: c-Src enzyme inhibition (FRET, Z-LYTE); format: biochemical
In short: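 Syk or c-Src enzyme (3000 or 2000 ng/mL solutions) was preincubated 2 h at RT with compound solutions at 1, 0.1, 0.01 or 0.001 µg/mL. Z-LYTE FRET peptide (8 µM solution) and ATP (800 µM solution for c-Src, 60 µM for Syk) were then added for 1 h, followed by protease development for 1 h. Phosphorylation was read as the coumarin/fluorescein emission ratio.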

GSK 3α = GSK 3α (Homo sapiens (Human), UniProt P49840); experiment: GSK 3α enzyme inhibition (FRET, Z-LYTE; Method 2); format: biochemical; conditions: read-out: IC50 Values for Enzyme Inhibition GSK3α
In short: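 Z-LYTE FRET assay: GSK3-α (500 ng/mL stock) preincubated 105 min at RT with compound at 10, 1, 0.1 or 0.01 μg/mL stock. FRET peptide (8 μM stock) and ATP (40 μM stock) were then added for 1 h, followed by protease development for 1 h. Phosphorylation was read as coumarin/fluorescein emission ratio.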

[1] = system: TNBS-induced colitis in BDF1 mice; experiment: TNBS-induced colitis in mice (in vivo iv); design: species or system mouse; conditions: for inflammatory cell infiltrate in the reticular and laminar propria zones / ulcer grade and epithelial repair compared to the vehicle control: 5 mg/kg orally, 2 days; for inflammatory cell infiltrate in the reticular and laminar propria zones / ulcer grade and epithelial repair compared to the vehicle control / activity in in vivo model of colonic inflammation (histopathology analysis): TNBS-induced colitis, mice; for LP inflammation / Ulcer grade: TNBS-induced colitis in mice; for activity in in vivo model of colonic inflammation (histopathology analysis): conducted over 2 days
Procedure: Non-fasted, 10-12 week old, male BDF1 mice are dosed by oral gavage twice daily with either vehicle (5 mL/kg), reference item (Budesonide 2.5 mg/kg) or test compound (1 or 5 mg/kg) one day before (Day −1) stimulation of the inflammatory response by treatment with 2,4,6-trinitrobenzenesulphonic acid (TNBS) (15 mg/mL in 50% ethanol/50% saline). On Day 0 of the study TNBS (200 μL) is administered intra-colonically via a plastic catheter with BID dosing of the vehicle, reference or test compound continuing for 2 or 4 days. During the study, animals are weighed every day and stool observations are made and recorded as a score, based on stool consistency. At the time of sacrifice on Day 2 (or Day 4), the large intestine is removed and the length and weight recorded. Sections of the colon are taken for histopathology scoring to determine disease severity.

CYP3A4 = CYP3A4 (Homo sapiens (Human), UniProt P08684); experiment: CYP3A4 inhibition study; format: in vitro ADME; conditions: for inhibition at 15 µM / inhibition at 5 μM: human; for inhibition at 15 µM: read-out: 15 μM % Inh; for inhibition at 5 μM: read-out: % Inh (inhibition at 5 μM reported instead)
Procedure: Assessment of certain in vitro ADME (absorption, distribution, metabolism, and excretion) parameters for certain compounds of the invention was conducted by BioFocus (Saffron Walden, UK).

[2] = system: intestinal mucosa biopsies from the inflamed regions of the colon of ulcerative colitis (IBD) patients; experiment: Human biopsy assay (assay l); format: cell-based; conditions: 1 μg/mL; for cytokine (IL-1β, IL-6 and IL-8) release compared to the DMSO control: 24 hours, biopsies from ulcerative colitis patients; for Cytokine release from biopsies of UC patients: IL-1β release / Cytokine release from biopsies of UC patients: IL-6 release / Cytokine release from biopsies of UC patients: IL-8 release: 24 hr, relative to DMSO control = 100%
Procedure: Intestinal mucosa biopsies are obtained from the inflamed regions of the colons of IBD patients. The biopsy material is cut into small pieces (2-3 mm) and placed on steel grids in an organ culture chamber at 37° C. in a 5% CO2/95% O2 atmosphere in serum-free media. DMSO control or test compounds at the desired concentration are added to the tissue and incubated for 24 hr in the organ culture chamber. The supernatant is harvested for determination of IL-6, IL-8, IL-1β and TNFα levels by R&D ELISA.

[3] = Hydrolytic stability study; format: physicochemical; conditions: DMSO:water (3:1), 1 mg/mL
Procedure: Chemical stability of compounds of the invention was assessed in a mixture of DMSO and water (3:1) at a test compound concentration of 1 mg/mL
Sample Preparation • A 1.0 mg sample of test compound was dissolved in 750 μL of DMSO. Water (250 μL) was added slowly, ensuring no precipitation occurred.
Recording Stability • A 50 μL aliquot of the test solution was removed and analysed in duplicate by 5 μL HPLC injections. The peak area for the test compound was recorded following manual integration of the corresponding UV trace. • The test solution was heated to 60° C., with stirring, and 50 μL aliquots removed for HPLC analysis at 5 and 24 h timepoints.

GSK 3α, sequence (P49840 whole entry): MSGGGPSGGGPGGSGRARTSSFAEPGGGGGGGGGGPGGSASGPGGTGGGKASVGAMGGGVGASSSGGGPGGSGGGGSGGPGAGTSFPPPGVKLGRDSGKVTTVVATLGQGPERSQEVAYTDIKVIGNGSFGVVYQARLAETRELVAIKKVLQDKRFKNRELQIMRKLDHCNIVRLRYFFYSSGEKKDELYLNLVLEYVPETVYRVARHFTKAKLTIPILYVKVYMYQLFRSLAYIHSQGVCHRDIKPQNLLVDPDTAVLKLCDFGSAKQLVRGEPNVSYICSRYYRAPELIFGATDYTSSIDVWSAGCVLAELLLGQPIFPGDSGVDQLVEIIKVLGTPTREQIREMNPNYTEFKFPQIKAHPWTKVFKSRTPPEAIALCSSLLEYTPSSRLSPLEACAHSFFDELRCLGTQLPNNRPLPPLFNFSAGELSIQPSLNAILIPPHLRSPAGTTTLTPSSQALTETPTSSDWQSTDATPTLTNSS
CYP3A4, sequence (P08684 whole entry): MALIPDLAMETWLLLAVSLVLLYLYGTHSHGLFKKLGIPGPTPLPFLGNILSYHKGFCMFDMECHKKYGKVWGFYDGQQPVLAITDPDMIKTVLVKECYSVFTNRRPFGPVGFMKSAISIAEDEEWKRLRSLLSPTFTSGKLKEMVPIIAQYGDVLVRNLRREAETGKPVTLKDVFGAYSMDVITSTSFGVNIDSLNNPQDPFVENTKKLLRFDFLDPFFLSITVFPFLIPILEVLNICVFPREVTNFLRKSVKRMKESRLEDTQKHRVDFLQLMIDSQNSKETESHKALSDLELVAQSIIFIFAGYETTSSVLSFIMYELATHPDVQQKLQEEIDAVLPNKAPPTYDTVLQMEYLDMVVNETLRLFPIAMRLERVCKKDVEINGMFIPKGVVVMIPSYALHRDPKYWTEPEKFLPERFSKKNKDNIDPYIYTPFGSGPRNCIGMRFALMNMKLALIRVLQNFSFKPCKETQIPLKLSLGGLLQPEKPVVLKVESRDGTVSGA
B-Raf, sequence (P15056 whole entry): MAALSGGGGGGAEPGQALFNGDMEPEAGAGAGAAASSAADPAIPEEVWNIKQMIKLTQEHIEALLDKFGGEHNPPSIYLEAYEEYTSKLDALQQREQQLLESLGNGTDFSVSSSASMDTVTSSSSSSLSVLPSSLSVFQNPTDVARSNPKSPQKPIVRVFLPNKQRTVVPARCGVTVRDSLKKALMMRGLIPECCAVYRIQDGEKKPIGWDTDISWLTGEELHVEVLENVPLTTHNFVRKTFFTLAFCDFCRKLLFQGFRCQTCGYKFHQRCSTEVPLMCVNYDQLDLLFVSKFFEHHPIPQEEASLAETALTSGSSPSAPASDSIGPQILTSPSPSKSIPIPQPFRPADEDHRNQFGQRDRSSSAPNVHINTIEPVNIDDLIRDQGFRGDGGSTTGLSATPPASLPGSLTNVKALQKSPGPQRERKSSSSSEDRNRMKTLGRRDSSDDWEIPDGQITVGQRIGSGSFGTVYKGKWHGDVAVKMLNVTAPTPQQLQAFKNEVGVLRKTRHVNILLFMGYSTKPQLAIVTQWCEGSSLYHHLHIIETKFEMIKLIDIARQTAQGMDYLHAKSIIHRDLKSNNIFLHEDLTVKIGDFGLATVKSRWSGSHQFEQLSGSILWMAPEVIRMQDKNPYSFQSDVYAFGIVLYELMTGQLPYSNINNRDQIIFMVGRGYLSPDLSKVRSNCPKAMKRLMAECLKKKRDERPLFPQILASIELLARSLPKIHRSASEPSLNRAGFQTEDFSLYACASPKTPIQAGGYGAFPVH
B-Raf (V600E), sequence (P15056 whole entry V600E): as the sequence (P15056 whole entry) above, with V600E counted along it
c-Src, sequence (P12931 whole entry, looked up): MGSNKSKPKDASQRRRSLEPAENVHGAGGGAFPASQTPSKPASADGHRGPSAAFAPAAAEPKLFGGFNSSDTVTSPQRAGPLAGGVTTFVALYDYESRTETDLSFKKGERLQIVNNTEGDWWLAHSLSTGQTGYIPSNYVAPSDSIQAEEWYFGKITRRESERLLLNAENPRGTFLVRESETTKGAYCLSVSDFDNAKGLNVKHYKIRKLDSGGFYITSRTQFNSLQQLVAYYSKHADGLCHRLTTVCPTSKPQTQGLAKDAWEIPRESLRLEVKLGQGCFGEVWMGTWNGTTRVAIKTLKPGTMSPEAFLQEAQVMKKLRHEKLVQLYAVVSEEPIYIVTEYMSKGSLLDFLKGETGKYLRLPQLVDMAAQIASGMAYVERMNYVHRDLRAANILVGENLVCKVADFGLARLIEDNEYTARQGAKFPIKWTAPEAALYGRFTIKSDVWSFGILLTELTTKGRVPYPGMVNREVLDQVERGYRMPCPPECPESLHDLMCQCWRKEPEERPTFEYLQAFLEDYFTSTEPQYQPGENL

Structure (SMILES) | effect on the binding of the kinase B-Raf to its standard ligand (B-Raf) | effect on the binding of the kinase B-Raf (V600E) to its standard ligand (B-Raf (V600E)) | IC50 (c-Src) [µM] | IC50 (GSK 3α) [µM] | inflammatory cell infiltrate in the reticular and laminar propria zones [1] | ulcer grade and epithelial repair compared to the vehicle control [1] | LP inflammation ([1]; 5 mg/kg oral) | Ulcer grade ([1]; 5 mg/kg oral) | activity in in vivo model of colonic inflammation (histopathology analysis) [1] | IC50 (CYP3A4; CYP3A4, 0 min preincubation) [µM] | IC50 (CYP3A4; CYP3A4, 30 min preincubation) [µM] | inhibition at 15 µM (CYP3A4; CYP3A4, 0 min preincubation) [%] | inhibition at 15 µM (CYP3A4; CYP3A4, 30 min preincubation) [%] | cytokine (IL-1β, IL-6 and IL-8) release compared to the DMSO control [2] | % Parent Remaining ([3]; 0 min) [%] | % Parent Remaining ([3]; 60° C., 300 min) [%] | % Parent Remaining ([3]; 60° C., 1440 min) [%] | Cytokine release from biopsies of UC patients: IL-1β release [2] [%] | Cytokine release from biopsies of UC patients: IL-6 release [2] [%] | Cytokine release from biopsies of UC patients: IL-8 release [2] [%] | other results
COCCOCCOCCNC(=O)c1cc(Nc2cc(Oc3ccc(NC(=O)Nc4cc(C(C)(C)C)cc(NS(C)(=O)=O)c4OC)c4ccccc34)ccn2)cc(OC)c1 [Example 3, 3-((4-((4-(3-(5-(tert-Butyl)-2-methoxy-3-(methylsulfonamido)phenyl)ureido)naphthalen-1-yl)oxy)pyridin-2-yl)amino)-5-methoxy-N-(2-(2-(2-methoxyethoxy)ethoxy)ethyl)benzamide] | did not have any significant effect | did not have any significant effect | 0.02 | 4.32 | marked reduction | marked improvements | 3.8 ± 0.5 | 3.7 ± 0.4 | substantial activity | > 15 | > 15 | 22 | 51 | – | – | – | – | – | – | – | –
C#Cc1cc(Nc2nccc(Oc3ccc(NC(=O)Nc4cc(C(C)(C)C)cc(NS(C)(=O)=O)c4OC)c4ccccc34)n2)cc(C(=O)NCCOCCOCCOC)c1 [Example 16] | did not have any significant effect | did not have any significant effect | – | – | marked reduction | marked improvements | – | – | substantial activity | – | – | – | – | significantly inhibited | 100 | 100 | 100 | – | – | – | 15 μM % Inh (CYP3A4; CYP3A4, 0 min preincubation): 31%; 15 μM % Inh (CYP3A4; CYP3A4, 30 min preincubation): 54%
COc1cc(Nc2cc(Oc3ccc(NC(=O)Nc4cc(C(C)(C)C)cc(NS(C)(=O)=O)c4OC)c4ccccc34)ccn2)cc(C(=O)NCCN2CCOCC2)c1 [Example 27] | did not have any significant effect | did not have any significant effect | 0.026 | 4.5 | marked reduction | marked improvements | 3.2 ± 0.4 | 3.3 ± 0.5 | substantial activity | > 15 | 8.9 | 19 | 57 | significantly inhibited | 100 | 102 | 102 | 11 ± 54 | 48 ± 26 | 60 ± 15 | –
COCCOCCOCCOc1cc(Nc2nccc(Oc3ccc(NC(=O)Nc4cc(C(C)(C)C)cc(NS(C)(=O)=O)c4OC)c4ccccc34)n2)cc(OC)c1 [Example 4, N-(5-(tert-Butyl)-2-methoxy-3-(3-(4-((2-((3-methoxy-5-(2-(2-(2-methoxyethoxy)ethoxy)-ethoxy)phenyl)amino)pyrimidin-4-yl)oxy)naphthalen-1-yl)ureido)phenyl)methanesulfonamide] | did not have any significant effect | did not have any significant effect | 0.014 | 2.66 | marked reduction | marked improvements | – | – | substantial activity | > 5 | 2.7 | – | – | significantly inhibited | 100 | 103 | 102 | 17 ± 21 | 5 ± 1 | 2 ± 1 | LP inflammation ([1]; 1 mg/kg oral): 2.6 ± 0.3; Ulcer grade ([1]; 1 mg/kg oral): 3.6 ± 0.4; inhibition at 5 μM (CYP3A4; CYP3A4, 0 min preincubation): 9%; inhibition at 5 μM (CYP3A4; CYP3A4, 30 min preincubation): 58%
COc1c(NC(=O)Nc2ccc(Oc3ccnc(Nc4ccccc4)c3)c3ccccc23)cc(C(C)(C)C)cc1C(=O)NC1COC1 [Example 75, 5-(tert-Butyl)-2-methoxy-N-(oxetan-3-yl)-3-(3-(4-((2-(phenylamino)pyridin-4-yl)oxy)-naphthalen-1-yl)ureido)benzamide] | did not have any significant effect | did not have any significant effect | 0.097 | 6.03 | marked reduction | marked improvements | 2.3 ± 0.4 | 3.0 ± 0.4 | substantial activity | > 15 | > 15 | 3 | 42 | – | 100 | 101 | 99 | – | – | – | –
